# Reference: US10328077B2 (CELGENE CORPORATION, priority 2016, dated 2019)
# Like-named read-outs stand apart in the source and are kept apart here.
# Experiments:
# NCI-H1417 SCLC xenograft = NCI-H1417 SCLC xenograft efficacy, athymic nude mice; type: in vivo; details: for % TGI: Day 65; for mean body weight gain: end of study
# [1] = system: LXFS 1129 SCLC patient-derived xenograft; assay: LXFS 1129 SCLC PDX model; set-up: species or system mice; details: mouse, in vivo
# [2] = system: LU2527 lung NEC patient-derived xenograft; type: in vivo
# MKL-1 hMCC xenograft = type: in vivo; details: 5 mg/kg PO 5 on/2 off
# [3] = system: gene expression in MKL-1 and MS-1 hMCC cell lines; assay: RNA-seq modulation of gene expression in cultured hMCC cells; type: cell-based, human; details: 10 and 100 nM
# Protocol: The modulation of gene expression by Compund A for a panel of human genes was determined by culturing MKL-1 or MS-1 cells (Sigma-Aldrich, St. Louis, Mo.) for three days in the presence of 0, 10, or 100 nM Compund A and extracting total RNA for assessment by RNA-seq.
# Libraries were sequenced on an Illumina NextSeq® 500 System (Illumina, San Diego, Calif.) using 75 base paired-end RNA sequencing. Sequenced reads were mapped to the hg19 human genome build and differential expression was determined by analysis of variance across all replicates relative to the vehicle control.
# Sequenced reads were mapped to the hg19 human genome build using the Spliced Transcripts Alignment to a Reference (STAR) software tool (©Alexander Dobin, 2009-2016) and transcript counts were normalized using the Empirical Analysis of Digital Gene Expression Data in R (edgeR) and Differential gene expression analysis based on the negative binomial distribution (DESeq2) software tools (©Bioconductor, 2003-2017). Differential expression was determined by analysis of variance across all replicates relative to the vehicle control.
# [4] = Pharmacokinetics after IV and oral dose, monkeys; type: in vivo; details: cynomolgus monkey, plasma, male; for half-life: read-out: t1/2, z (converted)
# P-gp (MDR1) = P-gp (MDR1) (Homo sapiens (Human), UniProt P08183); assay: Permeability in MDR1-MDCK cells; type: in vitro ADME
# Chain of P-gp (MDR1) (P08183 whole entry): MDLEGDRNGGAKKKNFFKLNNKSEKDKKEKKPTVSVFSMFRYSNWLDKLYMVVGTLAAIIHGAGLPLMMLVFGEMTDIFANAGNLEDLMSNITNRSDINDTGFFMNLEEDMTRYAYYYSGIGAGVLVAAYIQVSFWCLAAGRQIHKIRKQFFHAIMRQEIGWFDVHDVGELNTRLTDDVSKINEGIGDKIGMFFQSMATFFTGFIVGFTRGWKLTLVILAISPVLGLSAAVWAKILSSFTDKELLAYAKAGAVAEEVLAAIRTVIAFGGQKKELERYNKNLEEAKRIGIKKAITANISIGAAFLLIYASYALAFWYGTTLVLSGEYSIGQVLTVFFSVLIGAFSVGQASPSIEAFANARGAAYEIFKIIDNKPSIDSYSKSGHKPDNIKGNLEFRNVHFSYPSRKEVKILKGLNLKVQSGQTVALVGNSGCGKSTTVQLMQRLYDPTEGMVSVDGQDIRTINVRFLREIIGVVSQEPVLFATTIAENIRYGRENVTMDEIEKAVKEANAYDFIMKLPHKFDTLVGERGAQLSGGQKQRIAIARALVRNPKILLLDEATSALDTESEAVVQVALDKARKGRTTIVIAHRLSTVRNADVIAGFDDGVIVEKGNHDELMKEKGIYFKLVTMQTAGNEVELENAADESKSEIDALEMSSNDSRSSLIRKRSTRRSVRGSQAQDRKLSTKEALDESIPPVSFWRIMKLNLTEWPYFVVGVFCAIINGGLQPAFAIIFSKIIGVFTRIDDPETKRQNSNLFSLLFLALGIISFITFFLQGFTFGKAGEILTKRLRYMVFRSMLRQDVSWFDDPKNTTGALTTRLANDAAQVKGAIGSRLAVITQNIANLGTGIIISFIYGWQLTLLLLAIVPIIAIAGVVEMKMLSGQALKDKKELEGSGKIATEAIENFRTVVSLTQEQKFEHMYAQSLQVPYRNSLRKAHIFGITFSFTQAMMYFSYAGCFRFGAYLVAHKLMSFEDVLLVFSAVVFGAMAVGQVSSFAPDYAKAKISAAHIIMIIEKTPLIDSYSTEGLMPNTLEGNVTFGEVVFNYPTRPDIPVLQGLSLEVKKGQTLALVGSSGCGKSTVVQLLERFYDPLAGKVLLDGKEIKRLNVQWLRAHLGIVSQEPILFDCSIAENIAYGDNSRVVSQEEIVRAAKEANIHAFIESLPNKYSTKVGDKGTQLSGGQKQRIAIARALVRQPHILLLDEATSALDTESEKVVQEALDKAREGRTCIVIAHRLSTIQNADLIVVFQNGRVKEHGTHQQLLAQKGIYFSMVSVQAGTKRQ
# [5] = Metabolism in cryopreserved primary hepatocytes; type: in vitro ADME; details: male mouse, rat, dog, monkey; mixed gender human
# [6] = Excretion in bile duct cannulated rats; type: in vivo; details: IV, 24-hour period
# CYP2C19 = CYP2C19 (Homo sapiens (Human), UniProt P33261); assay: CYP inhibition in pooled human liver microsomes, CYP2C19; type: in vitro ADME
# Chain of CYP2C19 (P33261 whole entry): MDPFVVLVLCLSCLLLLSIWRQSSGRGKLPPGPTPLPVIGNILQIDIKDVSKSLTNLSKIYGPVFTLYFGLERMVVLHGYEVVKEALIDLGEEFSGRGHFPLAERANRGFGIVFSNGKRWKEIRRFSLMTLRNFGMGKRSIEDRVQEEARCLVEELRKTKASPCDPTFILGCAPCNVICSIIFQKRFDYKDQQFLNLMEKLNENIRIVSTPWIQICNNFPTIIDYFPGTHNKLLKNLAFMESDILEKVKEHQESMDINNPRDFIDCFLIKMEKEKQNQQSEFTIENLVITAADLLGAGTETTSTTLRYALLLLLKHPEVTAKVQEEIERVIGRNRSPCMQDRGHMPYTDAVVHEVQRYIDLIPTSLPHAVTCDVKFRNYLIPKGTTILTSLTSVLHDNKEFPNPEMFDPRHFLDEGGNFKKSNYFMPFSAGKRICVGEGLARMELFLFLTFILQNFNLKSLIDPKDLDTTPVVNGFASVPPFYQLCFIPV
# CYP1A2 mRNA = assay: CYP induction in cryopreserved human hepatocytes, CYP1A2; type: in vitro ADME; details: 0.03 to 10 μM, up to 3 days
# CYP2B6 mRNA = assay: CYP induction in cryopreserved human hepatocytes, CYP2B6; type: in vitro ADME; details: 0.03 to 10 μM, up to 3 days
# CYP3A4 mRNA = assay: CYP induction in cryopreserved human hepatocytes, CYP3A4; type: in vitro ADME; details: 0.03 to 10 μM, up to 3 days
# [7] = Predicted human pharmacokinetics (allometric scaling)
# [8] = Exploratory toxicity study in dogs; type: in vivo, Beagle dogs
# [9] = system: LXFS 573 SCLC patient-derived xenograft
# hERG potassium channel = hERG potassium channel (Homo sapiens (Human), UniProt Q12809)
# Chain of hERG potassium channel (Q12809 whole entry): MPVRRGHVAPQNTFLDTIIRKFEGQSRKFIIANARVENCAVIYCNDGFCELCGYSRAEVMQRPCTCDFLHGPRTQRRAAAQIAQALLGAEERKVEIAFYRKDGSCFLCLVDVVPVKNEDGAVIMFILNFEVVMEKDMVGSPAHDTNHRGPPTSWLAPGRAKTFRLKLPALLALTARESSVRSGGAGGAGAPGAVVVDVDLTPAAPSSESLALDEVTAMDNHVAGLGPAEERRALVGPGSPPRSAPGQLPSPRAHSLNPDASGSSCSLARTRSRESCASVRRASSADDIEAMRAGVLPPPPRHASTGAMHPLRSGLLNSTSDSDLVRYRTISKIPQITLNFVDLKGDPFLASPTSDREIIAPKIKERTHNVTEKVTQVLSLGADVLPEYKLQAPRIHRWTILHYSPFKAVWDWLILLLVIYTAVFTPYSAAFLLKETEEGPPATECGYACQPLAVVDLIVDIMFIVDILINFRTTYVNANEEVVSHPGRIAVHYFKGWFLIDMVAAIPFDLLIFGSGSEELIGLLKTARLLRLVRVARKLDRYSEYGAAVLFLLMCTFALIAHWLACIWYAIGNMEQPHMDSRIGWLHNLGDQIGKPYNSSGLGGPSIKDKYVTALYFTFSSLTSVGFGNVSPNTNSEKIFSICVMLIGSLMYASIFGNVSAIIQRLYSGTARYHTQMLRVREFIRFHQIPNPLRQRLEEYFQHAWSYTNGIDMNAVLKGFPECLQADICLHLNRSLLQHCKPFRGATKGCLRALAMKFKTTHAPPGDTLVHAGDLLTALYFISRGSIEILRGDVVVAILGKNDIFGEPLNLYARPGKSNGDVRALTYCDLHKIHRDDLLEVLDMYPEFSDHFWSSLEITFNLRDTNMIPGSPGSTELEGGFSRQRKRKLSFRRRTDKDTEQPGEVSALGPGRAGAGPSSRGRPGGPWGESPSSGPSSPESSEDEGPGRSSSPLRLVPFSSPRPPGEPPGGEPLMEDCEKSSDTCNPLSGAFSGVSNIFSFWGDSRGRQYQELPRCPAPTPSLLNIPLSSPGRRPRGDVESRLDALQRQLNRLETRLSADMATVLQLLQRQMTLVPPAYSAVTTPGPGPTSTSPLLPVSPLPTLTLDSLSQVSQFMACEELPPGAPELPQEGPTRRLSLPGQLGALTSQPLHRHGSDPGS
# muscarinic M1 receptor = muscarinic M1 receptor (Homo sapiens (Human), UniProt P11229); assay: CEREP in vitro pharmacology panel, muscarinic M1 receptor
# Chain of muscarinic M1 receptor (P11229 whole entry): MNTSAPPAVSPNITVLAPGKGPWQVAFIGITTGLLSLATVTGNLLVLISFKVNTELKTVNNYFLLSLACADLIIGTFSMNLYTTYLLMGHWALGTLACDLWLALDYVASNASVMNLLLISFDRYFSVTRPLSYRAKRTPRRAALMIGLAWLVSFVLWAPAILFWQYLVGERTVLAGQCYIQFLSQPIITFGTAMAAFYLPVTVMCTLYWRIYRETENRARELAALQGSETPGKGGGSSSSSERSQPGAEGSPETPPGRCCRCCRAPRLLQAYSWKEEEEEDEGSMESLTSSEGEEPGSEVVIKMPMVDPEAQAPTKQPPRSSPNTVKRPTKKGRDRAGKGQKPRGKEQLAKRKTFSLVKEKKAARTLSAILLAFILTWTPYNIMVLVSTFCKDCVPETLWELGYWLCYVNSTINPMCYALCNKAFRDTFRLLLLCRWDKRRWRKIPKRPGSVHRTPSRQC
# [10] = 4-week toxicity study with 4-week recovery in mice (incl. TK)
# [11] = Compound A 5 mg/kg/day PO days 1-133
# [12] = Day 1, 5 mg base/kg/dose oral, 5 days on/2 days off, F
# [13] = Day 1, 5 mg base/kg/dose oral, 5 days on/2 days off, M
# [14] = Day 1, 15 mg base/kg/dose oral, 5 days on/2 days off, M
# [15] = Day 1, 25 mg base/kg/dose oral, QODx3/week, F
# [16] = Day 1, 25 mg base/kg/dose oral, QODx3/week, M
# [17] = Day 1, 45 mg base/kg/dose oral, 5 days on/2 days off, F
# [18] = Day 1, 45 mg base/kg/dose oral, 5 days on/2 days off, M
# [19] = Day 26, 5 mg base/kg/dose oral, 5 days on/2 days off, F
# [20] = Day 26, 5 mg base/kg/dose oral, 5 days on/2 days off, M
# [21] = Day 26, 15 mg base/kg/dose oral, 5 days on/2 days off, F
# [22] = Day 26, 25 mg base/kg/dose oral, QODx3/week, F
# [23] = Day 26, 25 mg base/kg/dose oral, QODx3/week, M
# [24] = Day 26, 45 mg base/kg/dose oral, 5 days on/2 days off, F
# [25] = Day 26, 45 mg base/kg/dose oral, 5 days on/2 days off, M
smiles,measurement,setting,value
"COc1ccc(-c2c(-c3ccc(C#N)c(F)c3)nc(N3CCC(N)CC3)n(C)c2=O)cc1F [Compound A, 4-[2-(4-amino-piperidin-1-yl)-5-(3-fluoro-4-methoxy-phenyl)-1-methyl-6-oxo-1,6-dihydro-pyrimidin-4-yl]-2-fluoro-benzonitrile]",Median Tumor Volume Day 65,NCI-H1417 SCLC xenograft; 2.5 mg base/kg PO QDx65,39.3 mm^3
same,Median Tumor Volume Diff. (Day 65 - Day 0),NCI-H1417 SCLC xenograft; 2.5 mg base/kg PO QDx65,−69.9 mm^3
same,% TGI,NCI-H1417 SCLC xenograft; 2.5 mg base/kg PO QDx65,159%
same,TGI,"NCI-H1417 SCLC xenograft; 2.5 mg base/kg oral QD×65, Day 65",159%
same,mean body weight gain,NCI-H1417 SCLC xenograft; 2.5 mg base/kg,1%
same,Median Tumor Volume Day 65,NCI-H1417 SCLC xenograft; 5 mg base/kg PO QDx65,15.9 mm^3
same,Median Tumor Volume Diff. (Day 65 - Day 0),NCI-H1417 SCLC xenograft; 5 mg base/kg PO QDx65,−92.3 mm^3
same,% TGI,NCI-H1417 SCLC xenograft; 5 mg base/kg PO QDx65,178%
same,TGI,"NCI-H1417 SCLC xenograft; 5 mg base/kg oral QD×65, Day 65",178%
same,mean body weight gain,NCI-H1417 SCLC xenograft; 5 mg base/kg,7.5%
same,tumors regressed in net volume,NCI-H1417 SCLC xenograft; 2.5 and 5 mg base/kg groups together,14 out of 15
same,mean body weight loss,[1],< 6%
same,Median Tumor Volume Day 46,[2]; 5 mg/kg PO QD x 46,329.7 mm^3
same,Median Tumor Volume Diff (Day 46 - Day 0),[2]; 5 mg/kg PO QD x 46,177.9 mm^3
same,% TGI,"[2]; 5 mg/kg PO QD x 46, Day 46",84%
same,TGI,[2]; 5 mg/kg oral QD for 46 days,84%
same,tolerability,[2]; 1.5 and 5 mg/kg oral QD,acceptably tolerated
same,Median Tumor Volume Day 15,MKL-1 hMCC xenograft,880 mm^3
same,Median Tumor Volume Diff (Day 15 - Day -3),MKL-1 hMCC xenograft,815 mm^3
same,downregulated genes with expression changes in both hMCC lines at both concentrations (of 4303),"[3]; 3 days, MKL-1 and MS-1",17
same,upregulated genes with expression changes in both hMCC lines at both concentrations (of 3803),"[3]; 3 days, MKL-1 and MS-1",172
same,ST18 and FREM2 gene expression change (upregulated),[3]; both hMCC lines,at least 2 fold
same,AUC(0-inf),[4]; single IV dose 1 mg,983 ng·h/mL
same,AUC(0-t),[4]; single IV dose 1 mg,912 ng·h/mL
same,clearance,[4]; single IV dose 1 mg,18 mL/min/kg
same,Vd,"[4]; single IV dose 1 mg, mean (SD), read-out: Vss",17.1 L/kg
same,half-life,[4]; single IV dose 1 mg,12 h
same,AUC(0-t),[4]; single oral dose 5 mg base/kg,3620 ng·h/mL
same,Cmax,[4]; single oral dose 5 mg base/kg,187 ng/mL
same,Tmax,[4]; single oral dose 5 mg base/kg,6 h
same,bioavailability,[4]; single oral dose 5 mg base/kg,82%
same,half-life,[4]; single oral dose 5 mg base/kg,12.9 h
same,Papp A→B,P-gp (MDR1),0.5 ×10⁻⁶ cm/s
same,Papp B→A,P-gp (MDR1),16.5 ×10⁻⁶ cm/s
same,metabolic stability in hepatocytes,[5],greater in rat and dog followed by human and monkeys while being least stable in mouse hepatocytes
same,dose excreted intact (urine + bile),[6],26.3 % of the dose
same,dose excreted intact in bile,[6],17.8 % of dose
same,dose excreted intact in urine,[6],8.5 % of dose
same,IC50,CYP2C19,> 50 µM
same,increase in CYP1A2 mRNA over vehicle control,CYP1A2 mRNA,< 2 fold
same,increase in CYP2B6 mRNA over vehicle control,CYP2B6 mRNA,< 2 fold
same,increase in CYP3A4 mRNA over vehicle control,CYP3A4 mRNA,< 2 fold
same,predicted steady state systemic exposure (AUCt),"[7]; 1.25 mg oral QW, 60-kg human, 80% oral bioavailability assumed",29 ng·h/mL
same,predicted clearance,[7]; allometric scaling,9.4 mL/min/kg
same,predicted volume of distribution,[7]; allometric scaling,17.6 L/kg
same,platelet counts,[8]; 0.25 mg/kg/dose,no reduction in platelet counts
same,Compound A-related effects,[8]; 0.25 mg/kg/dose QOD,no Compound A-related effects
same,platelet counts,"[8]; 0.5 mg/kg/dose (both schedules) and 1 mg/kg/dose, most dogs","below 25,000 /μL"
same,body weight loss,"[8]; one female, 0.5 mg/kg/day 5 days on/2 days off, sacrificed moribund Day 12",10.8%
same,% TGD,[9]; [11],217%
same,T − C,[9]; [11],91 days
same,median TTE,[9]; [11],133 days
same,median TTE,[9]; Compound A monotherapy 5 mg/kg PO daily,133 days
same,study survivors,"[9]; Compound A monotherapy 5 mg/kg, Day 133, n=8",seven
same,MTV of study survivors,"[9]; mouse, in vivo",1064 mm3
same,"MTV, median tumor volume of study survivors","[9]; mouse, in vivo",(1064) mm^3
same,"SS, number of study survivors","[9]; mouse, in vivo",7
same,Hill coefficient,hERG potassium channel,1.2
same,Ki,muscarinic M1 receptor,1.6 µM
same,inhibition at 10 µM,muscarinic M1 receptor; read-out: inhibition of ligand binding,76%
same,AUC0-24,[10]; [12],1500 ng·h/mL
same,Cmax,[10]; [12],201 ng/mL
same,AUC0-24,[10]; [13],2270 ng·h/mL
same,Cmax,[10]; [13],230 ng/mL
same,AUC0-24,[10]; [14],13000 ng·h/mL
same,Cmax,[10]; [14],1020 ng/mL
same,AUC0-24,[10]; [15],20300 ng·h/mL
same,Cmax,[10]; [15],1830 ng/mL
same,AUC0-24,[10]; [16],21900 ng·h/mL
same,Cmax,[10]; [16],1530 ng/mL
same,AUC0-24,[10]; [17],36300 ng·h/mL
same,Cmax,[10]; [17],3570 ng/mL
same,AUC0-24,[10]; [18],35200 ng·h/mL
same,Cmax,[10]; [18],3130 ng/mL
same,AUC0-24,[10]; [19],2410 ng·h/mL
same,Cmax,[10]; [19],276 ng/mL
same,AUC0-24,[10]; [20],2010 ng·h/mL
same,Cmax,[10]; [20],276 ng/mL
same,AUC0-24,[10]; [21],8640 ng·h/mL
same,Cmax,[10]; [21],769 ng/mL
same,AUC0-24,[10]; [22],17500 ng·h/mL
same,Cmax,[10]; [22],1740 ng/mL
same,AUC0-24,[10]; [23],17800 ng·h/mL
same,Cmax,[10]; [23],1450 ng/mL
same,AUC0-24,[10]; [24],26500 ng·h/mL
same,Cmax,[10]; [24],2130 ng/mL
same,AUC0-24,[10]; [25],29000 ng·h/mL
same,Cmax,[10]; [25],2620 ng/mL
same,NOAEL,[10]; QD×5/week schedule,5 mg base/kg/dose
same,STD10,[10]; QD×5/week schedule,> 45 mg base/kg/dose
same,STD10,[10]; QOD×3 weekly schedule,> 25 mg base/kg/dose
